In series [1] the test system is SKOV-3 human ovarian cancer cells. Briefly: IC50 determination, MTT assay, SKOV-3 cells. Type of series: cell-based. The settings on record: SK-OV-3, SKOV3, 24 h treatment + 48 h post-treatment incubation. The method, then: (§1) Cytotoxicity of Cim-F-alb was tested with B16F10 cells and SKOV-3 human ovarian cancer cells (ATCC, Manassas, Va., USA) over a range of PTX concentrations. SKOV-3 cells were grown in RPMI-1640 medium containing 10% FBS and penicillin (100 IU/mL) and streptomycin (100 μg/mL). Both cells were treated with Cim-F-alb for 24 h, followed by post-treatment incubation in NC-free medium for 12-48 h. Free PTX and Abraxane were tested in the same manner for comparison. Cim-F-alb and Abraxane were directly reconstituted in PBS and serially diluted by a factor of 10. Free PTX solution was prepared as PTX stock solution in 50% DMSO at a concentration of 1 mg/mL and diluted in PBS. The maximum possible concentration of DMSO in the medium was 5% v/v. SKOV-3 cells and B16F10 cells grown in RPMI-1640 were tested with the MTT assay, and B16F10 cells grown in DMEM were tested with PI staining and flow cytometry. IC50 was calculated with GraphPad Prism 6 (La Jolla, Calif., USA).

In series [2] the test system is B16F10 cells. In words: IC50 determination, PI staining and flow cytometry, B16F10 cells. Type of series: cell-based. The settings on record: Mus musculus, B16-F10, 24 h treatment, PI staining + flow cytometry. The method, then:
B16F10 cells grown in DMEM medium was tested with propidium iodide (PI) staining due to the production of melanin [32], which interferes with colorimetric assay. B16F10 cells were seeded in a 6 well plate at a density of 100,000 cells per well. After overnight incubation, the medium was replaced with fresh medium, to which 100 μL of PNC-alb, Cim-C-alb, or Cim-F-alb in PBS was added to provide the final concentration eq. to 30 μg/mL PTX. After incubation with NC for 3 h, cells were washed with PBS two times to remove NC, followed by additional incubation for 21 h in NC-free medium. Then, B16F10 cells were trypsinized and stained with PI (1 μg/mL) for 15 min in dark at room temperature. The cells were centrifuged at 300 g for 5 minutes to remove extra PI dye and reconstituted in PBS for flow cytometry (Accuri C6, BD Biosciences, San Jose, Calif.). At least 15,000 gated events were acquired, and FL-2 channel was monitored to determine the population of PI-stained cells.
Cytotoxicity of Cim-F-alb was tested with B16F10 cells and SKOV-3 human ovarian cancer cells (ATCC, Manassas, Va., USA) over a range of PTX concentrations. SKOV-3 cells were grown in RPMI-1640 medium containing 10% FBS and penicillin (100 IU/mL) and streptomycin (100 μg/mL). […] IC50 was calculated with GraphPad Prism 6 (La Jolla, Calif., USA).
Background: Flow cytometry measures light scatter and fluorescence of single cells or particles in a stream.

Series [3] deals with B16F10 cells. Briefly: IC50 determination, MTT assay, B16F10 cells. The note with it: Mus musculus. Type of series: cell-based. Here is the method:
Cytotoxicity of NC was tested with B16F10 cells. B16F10 cells were grown in RPMI-1640 or DMEM medium supplemented with 10% FBS, penicillin (100 IU/mL) and streptomycin (100 μg/mL). B16F10 cells grown in RPMI-1640 were seeded in a 96 well plate at a density of 10,000 cells per well. After overnight incubation, the culture medium was replaced with a fresh cell culture medium, to which PNC-alb, Cim-C-alb, or Cim-F-alb were added to provide the final concentration eq. to 30 μg/mL PTX. After 3 h incubation, cells were washed with PBS twice to remove NC, followed by additional incubation for 21 h in NC-free medium. The cell viability was determined by the MTT (3-(4,5-dimethylthiazol-2-yl)-2,5-diphenyltetrazolium bromide) assay. Cells were treated with 75 μg of MTT and incubated for 3.5 h. The formazan crystals were dissolved in stop/solubilization solution (50% DMF, 20% SDS, pH 5) and quantified with a SpectraMax M3 microplate reader (Molecular Devices, CA, USA) at the wavelength of 562 nm.
as §1
Background: Tetrazolium assays rely on reduction of a dye to a coloured formazan, in cell work by metabolically active cells.

Series [4] is described as follows: As-received PTX dissolved in FBS-containing media after 6 h. Type of series: physicochemical. The note with it: 6 h at 37° C. Here is the method:
FIG. 23. […] One milligram of PTX was added to 1 mL of each medium and incubated for 6 h with agitation. A supernatant was separated from the undissolved PTX by centrifugation at 135,700 rcf for 10 min, extracted with 3 mL of ethyl acetate, which was evaporated and reconstituted in 50% ACN for HPLC analysis. […] The FBS suspension was sampled at 6 h to quantify dissolved PTX by that time. A supernatant was separated from the sample by 10 min centrifugation at 135,700 rcf and analyzed in the same way. The incubation time was limited to 6 h due to the instability of PTX in serum. Since the extraction method cannot differentiate protein-bound PTX from free PTX, the measured values represent the sum of serum protein-bound and free PTX. • [1] G. Bajaj, M. R. Kim, S. I. Mohammed, Y. Yeo, Hyaluronic acid-based hydrogel for regional delivery of paclitaxel to intraperitoneal tumors, J. Control. Release 158 (2012) 386-392. • [2] I. Ringel, S. B. Horwitz, Taxol is converted to 7-epitaxol, a biologically active isomer, in cell culture medium, J. Pharmacol. Exp. Ther. 242 (1987) 692-698.

The test system of a further series is HT-29 colon cancer cells. The note with it: cited from earlier work.
The test system of series [5] is HeLa cervical cancer cells. The settings on record: cited from earlier work.
The test system of series [6] is K562 chronic myelogenous leukemia cells. The note with it: cited from earlier work.

In general, IC50 refers to the midpoint of a concentration-inhibition curve. In the case of `CC(=O)O[C@H]1C(=O)[C@@]2(C)[C@H]([C@H](OC(=O)c3ccccc3)[C@]3(O)C[C@H](OC(=O)[C@H](O)[C@@H](NC(=O)c4ccccc4)c4ccccc4)C(C)=C1C3(C)C)[C@]1(OC(C)=O)CO[C@@H]1C[C@@H]2O` [Free PTX, paclitaxel], the IC50 in series [1] is 34.2 nM; in the series on B16F10 cells [2] it was 423 nM; in the series with B16F10 cells [3] (B16-F10, 24 h, B16F10, 24 h treatment + 24 h post-treatment incubation) it was 213 nM; in the series on B16F10 cells [3] (B16-F10, B16F10, 24 h treatment + 12 h post-treatment incubation) it was 91.3 nM; in the series on B16F10 cells [3] (B16-F10, B16F10, 24 h treatment + 48 h post-treatment incubation), 765 nM. Besides, the “PTX dissolved in 10% FBS” value in series [4] worked out at 9.6 ± 2.6 µg/mL. Besides, in series [4], the “PTX dissolved in 50% FBS” value was 47.5 ± 11.4 µg/mL. For the same compound, in series [4], the “PTX dissolved in undiluted FBS” value amounted to 71.9 ± 8.2 µg/mL.
Regarding `CCCCCCCCCCCCCCCC[N+](C)(C)C.[Br-]` [CTAB, hexadecyltrimethylammonium bromide], the cytotoxicity result (with HT-29 colon cancer cells; in series [5]; in series [6]) was “cytotoxic” in each case.

The values above are taken from patent publication US10398651B2, “Carrier-free nanoparticles” (priority 2016, dated 2019).
